Source: PMC6264741, “Chemical Constituents and Biological Studies of the Leaves of Grevillea robusta” (Molecules, 2011)
Read-outs that look alike come from different tables or passages of the source. Each block holds one compound with its values, some of them ahead of it. Numbered stars: 1 amine (or outer) side, 2 acyl side, 3 side chain; on linkers, the order of the positions; unused ones are H or OH. Bridge positions count the residues as written; N and C are the ends. Square brackets hold non-standard residues; d marks the D form. Peptide text beside a SMILES is read from it. I, II: the chains in the order shown. Actinocin(9to1) = Cc1c2oc3c(C)ccc(C(=O)[*:1])c3nc-2c(C(=O)[*:2])c(N)c1=O; NMeV = CN[C@H](C(=O)O)C(C)C; Sar = CNCC(=O)O

How the values were obtained:
[1] = DPPH free radical scavenging activity assay; design: DPPH inhibition activity (Inhibition %): dose or concentration left out as unconfirmed; details: mean ± S.E.M (n = 3); for IC50: 0.1 mM DPPH in ethanol, 30 min, 517 nm, read-out: DPPH inhibition activity IC50
Method: The free radical scavenging activity of compounds 1, 4, 5, 7, 8, 11−18, and 20 was measured with DPPH^• using the method of Chiu et al.. Briefly, 0.1 mM solution of DPPH^• in ethanol was prepared, and sample (20 μL) was added. The sample was thoroughly mixed and kept in the dark for 30 min. The absorbance was measured at 517 nm on a Quant universal microplate spectrophotometer. α-Tocopherol (Sigma Chemical Co.) was used as a standard agent. A lower absorbance of the reaction mixture indicated a higher free radical scavenging activity. The sample concentration that was used to provide the IC50 data was calculated from a graph plotting inhibition percentage against sample concentration. Tests were performed in triplicate.

[2] = test system: MCF-7 human breast tumor cell line; experiment: Cytotoxicity assay, MCF-7; type: cell-based; details: MCF7, mean ± SD (n = 3–8)
Method: (§1) Compounds 1−8, 11−18, 20, and 21 were subjected to cytotoxic evaluation. The clinically applied anticancer agent, actinomycin D, was used as a positive control for the cytotoxicity assays.
(§2) The cytotoxicity assay was carried out according to procedures that have been previously described in the literature.

[3] = test system: NCI-H460 human lung tumor cell line; experiment: Cytotoxicity assay, NCI-H460; type: cell-based; details: mean ± SD (n = 3–8)
Method: as §1, §2

[4] = test system: SF-268 human central nervous system tumor cell line; experiment: Cytotoxicity assay, SF-268; type: cell-based; details: mean ± SD (n = 3–8)
Method: as §1, §2

[5] = test system: MCF-7 human breast tumor cell line; design: method as in PMID 20704331; details: positive control; cited from earlier work
[6] = test system: NCI-H460 human lung tumor cell line; design: method as in PMID 20704331; details: positive control; cited from earlier work
[7] = test system: SF-268 human central nervous system tumor cell line; design: method as in PMID 20704331; details: positive control; cited from earlier work

Compound: COc1cc(O)cc(CCCCCCCCCCCCCCc2cc(O)cc(O)c2)c1 [Compound 15, bisgravillol]
- IC50 [1]: 36.7 ± 0.43 µM

Compound: CCOc1ccc(O)c(C=CC(=O)OC)c1 [Compound 3, methyl 5-ethoxy-2-hydroxycinnamate]
- IC50 [2]: > 50 µM
- IC50 [3]: > 50 µM
- IC50 [4]: > 50 µM
- melting point: 98 to 100 °C

Compound: COc1cc(O)cc(CCCCCCC/C=C/CCCCCc2cc(O)cc(O)c2)c1 [Compound 16, dehydrobisgravillol]
- IC50 [1]: 28.9 ± 0.67 µM

Compound: CCCCCCCCCCCCCCCc1cc(O)cc(O)c1 [Compound 20, cis-5-n-pentadecylresorcinol]
- DPPH inhibition activity (Inhibition %) [1]: (21.32 ± 0.21) %

Compound: CCCCCCCCCCCCCCC[C@H]1CC(=O)C[C@@H](O)C1 (relative stereo) [Compound 2, cis-3-hydroxy-5-pentadecylcyclohexanone]
- IC50 [2]: 26.7 ± 1.9 µM
- IC50 [3]: 42.6 ± 3.6 µM
- IC50 [4]: 20.5 ± 0.6 µM
- melting point: 62 to 64 °C

Compound: Oc1cc(O)cc(CCCCCC=CCCCCCCCc2cc(O)cc(O)c2)c1 [Compound 18, 5-[14'-(3'',5''-dihydroxyphenyl)-cis-tetradec-6'-en-1'-yl]benzene-1,3-diol]
- IC50 [1]: 35.2 ± 0.48 µM

Compound: Oc1cc2cc(c1)Oc1c(O)cc(cc1O)CCCCCCCCCCCCCC2 [Compound 7, robustol]
- IC50 [1]: 28.8 ± 0.42 µM

Compound: Cc1c2oc3c(C)ccc(C(=O)N[C@@H]4C(=O)N[C@H](C(C)C)C(=O)N5CCC[C@H]5C(=O)N(C)CC(=O)N(C)[C@@H](C(C)C)C(=O)O[C@@H]4C)c3nc-2c(C(=O)N[C@@H]2C(=O)N[C@H](C(C)C)C(=O)N3CCC[C@H]3C(=O)N(C)CC(=O)N(C)[C@@H](C(C)C)C(=O)O[C@@H]2C)c(N)c1=O [Actinomycin D, actinomycin D] (I: T[dV]P[Sar][NMeV] / II: T[dV]P[Sar][NMeV]; ester I:1-I:C, II:1-II:C; linker I:N-II:N via Actinocin(9to1))
- IC50 [5]: 0.103 µM
- IC50 [6]: 0.008 µM
- IC50 [7]: 0.016 µM

Compound: COc1cc(O)cc2c1-c1c(O)cc(cc1O)CCCCCCCCCCCCCC2 [Compound 11, methylgraviphane]
- DPPH inhibition activity (Inhibition %) [1]: (28.21 ± 0.23) %

Compound: Oc1cc(O)cc(CCCCCCCCCCCCCCc2cc(O)cc(O)c2)c1 [Compound 17, bis-norstriatol]
- IC50 [1]: 31.3 ± 0.34 µM

Compound: Oc1cc2cc(c1)Oc1c(O)cc(cc1O)[C@H](O)CCCCCCCCCCCCC2 [Compound 5, gravicycle]
- IC50 [1]: 25.7 ± 0.32 µM

Continued by falling IC50 [1], values first:

- IC50 [1]: 23 ± 0.53 µM
Compound: COC(=O)/C=C/C1(O)C=CC(=O)C=C1 [Compound 1, 4-hydroxy-4-(3-methoxycarbonyl)ethenylcyclohexadien-1-one]
- IC50 [2]: 15 ± 3 µM
- IC50 [3]: 10.8 ± 2.3 µM
- IC50 [4]: 5.9 ± 0.1 µM

- IC50 [1]: 15.7 ± 0.31 µM
Compound: COc1cc(O)cc2c1-c1c(O)cc(cc1O)CCCCCCCC=CCCCCC2 [Compound 12, methyldehydrograviphane]

- IC50 [1]: 11.8 ± 0.88 µM
Compound: Oc1cc2cc(c1)Oc1c(O)cc(cc1O)CCCCCCCC=CCCCCC2 [Compound 8, dehydrobustol-A]

- IC50 [1]: 3.96 ± 0.55 µM
Compound: Oc1cc(O)c2c(c1)CCCCCCCCCCCCCCc1cc(O)c-2c(O)c1 [Compound 13, graviphane]

- IC50 [1]: 3.1 ± 0.05 µM
Compound: Cc1c(C)c2c(c(C)c1O)CC[C@@](C)(CCC[C@H](C)CCC[C@H](C)CCCC(C)C)O2 [α-tocopherol, reference compound]

- IC50 [1]: 2.05 ± 0.22 µM
Compound: Oc1cc(O)c2c(c1)CCCCC/C=C/CCCCCCCc1cc(O)c-2c(O)c1 [Compound 14, dehydrograviphane]

- IC50 [1]: 0.53 ± 0.09 µM
Compound: COC(=O)C=Cc1cc(O)ccc1O [Compound 4, methyl 2,5-dihydroxycinnamate]
- IC50 [2]: > 50 µM
- IC50 [3]: > 50 µM
- IC50 [4]: > 50 µM
